Assay: xn = mol fraction of the nth substance listed
Details: Liquid; for mass density: Vibrating tube method

CCCO [propan-1-ol] + O
viscosity [mPa·s], Capillary tube (Ostwald / Ubbelohde) method
Details	x1 = 0.1	x1 = 0.2	x1 = 0.3	x1 = 0.4	x1 = 0.6	x1 = 0.8	x1 = 1
523.2 K, 20000 kPa	0.131	0.129	0.122	0.121	0.117	0.114	0.115
523.2 K, 30000 kPa	0.138	0.139	0.134	0.134	0.132	0.13	0.134
523.2 K, 40000 kPa	0.138	0.146	0.145	0.146	0.146	0.146	0.15
573.2 K, 20000 kPa	0.088	0.082	0.076	0.073	0.07	0.071	0.073
573.2 K, 30000 kPa	0.092	0.09	0.085	0.084	0.082	0.083	0.085
573.2 K, 40000 kPa	0.098	0.098	0.096	0.094	0.095	0.097	0.098
618.2 K, 20000 kPa	0.056	0.042	0.04	0.042	0.047	0.052	0.057
618.2 K, 30000 kPa	0.077	0.07	0.066	0.065	0.066	0.07	0.073
618.2 K, 40000 kPa	0.086	0.082	0.079	0.079	0.08	0.084	0.087

mass density [kg/m3]
Details	x1 = 0.1	x1 = 0.2	x1 = 0.3	x1 = 0.4	x1 = 0.6	x1 = 0.8	x1 = 1
523.2 K, 20000 kPa	733.5	682.3	648	624.3	596	582.1	575.3
523.2 K, 30000 kPa	749.8	702.6	672.3	651	626.2	613.3	606.8
523.2 K, 40000 kPa	761.7	718.6	689.7	670.3	647.5	635.6	629.3
573.2 K, 20000 kPa	637.8	576.7	538	513.7	492.5	489.6	494.3
573.2 K, 30000 kPa	664.2	614.7	583	564.2	545.3	540.2	540.6
573.2 K, 40000 kPa	685.8	640.9	613.2	596.3	578.8	572.6	572.1
618.2 K, 20000 kPa	430.7	324.4	311.8	325.6	360.4	393.7	419.4
618.2 K, 30000 kPa	557.7	504.6	479.5	469.8	469.3	480.8	491.7
618.2 K, 40000 kPa	603.6	561.4	539.6	529	523.2	528	534.1

O [water] + CO
viscosity [mPa·s], Pressure drop in straight capillary, x2 = 0
Details	523.2 K	573.2 K	618.2 K
20000 kPa	0.11	0.09	0.072
30000 kPa	0.113	0.093	0.077
40000 kPa	0.115	0.096	0.081

mass density [kg/m3], x2 = 0
Details	523.2 K	573.2 K	618.2 K
20000 kPa	816.1	734.8	619.7
30000 kPa	825.5	750.7	656.9
40000 kPa	834.3	764.4	682.3

From the NIST ThermoML archive (doi:10.1016/j.fluid.2017.09.005)
